Results reported in the supplement of paper PMC10307832.

Assays:
Assay in all cases: relative viability (nuclei count vs DMSO), 5 days (fraction); higher = more cells survive
LXF-289 = system: LXF-289
Outline: (§1)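 Values are medians from duplicate plates. Each reflects relative viability, defined as the nuclei count of treated wells over that of vehicle wells. Lung cancer cell lines in 1536-well plates were pin-tool dosed one day after seeding with one drug alone or with a fixed anchor-drug dose plus five library-drug doses (not always all listed) in √10 steps, then fixed, stained and imaged at 4× after 5 days.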

HCC-44 = system: HCC-44
Outline: as §1

NCI-H1755 = system: NCI-H1755
Outline: as §1

HCC-827 = system: HCC-827
Outline: as §1

NCI-H1792 = system: NCI-H1792
Outline: as §1

SK-LU-1 = system: SK-LU-1
Outline: as §1

NCI-H1666 = system: NCI-H1666
Outline: as §1

NCI-H3122 = system: NCI-H3122
Outline: as §1

NCI-H2347 = system: NCI-H2347
Outline: as §1

LU99A = system: LU99A
Outline: as §1

NCI-H520 = system: NCI-H520
Outline: as §1

NCI-H2126 = system: NCI-H2126
Outline: as §1

NCI-H1944 = system: NCI-H1944
Outline: as §1

NCI-H1793 = system: NCI-H1793
Outline: as §1

NCI-H358 = system: NCI-H358
Outline: as §1

NCI-H1395 = system: NCI-H1395
Outline: as §1

CAL-12T = system: CAL-12T
Outline: as §1

RERF-LC-KJ = system: RERF-LC-KJ
Outline: as §1

LCLC-103H = system: LCLC-103H
Outline: as §1

NCI-H322M = system: NCI-H322M
Outline: as §1

With `Cc1cn(-c2cc(NC(=O)c3ccc(C)c(Nc4nccc(-c5cccnc5)n4)c3)cc(C(F)(F)F)c2)cn1` [Nilotinib] + Cc1nc(NC(=O)N2CCC[C@H]2C(N)=O)sc1-c1ccnc(C(C)(C)C(F)(F)F)c1 [Alpelisib] (partner 2 µM) the relative viability (LXF-289; first compound 0.001 µM) was 1.02, the relative viability (LXF-289; first compound 0.003162 µM) was 1.26 and the relative viability (LXF-289; first compound 0.01 µM) was 1.23. It also gave a relative viability (LXF-289; first compound 0.03162 µM) of 0.935, a relative viability (LXF-289; first compound 0.1 µM) of 0.93 and a relative viability (HCC-44; first compound 0.001 µM) of 0.708. It also gave a relative viability (HCC-44; first compound 0.003162 µM) of 0.939, a relative viability (HCC-44; first compound 0.01 µM) of 0.898 and a relative viability (HCC-44; first compound 0.03162 µM) of 0.59. The relative viability (HCC-44; first compound 0.1 µM) was 0.74, the relative viability (NCI-H1755; first compound 0.001 µM) was 0.862 and the relative viability (NCI-H1755; first compound 0.003162 µM) was 1.13. It also gave a relative viability (NCI-H1755; first compound 0.01 µM) of 0.982, a relative viability (NCI-H1755; first compound 0.03162 µM) of 0.707 and a relative viability (NCI-H1755; first compound 0.1 µM) of 0.785. For the same compound, the relative viability (HCC-827; first compound 0.001 µM) was 1.1, the relative viability (HCC-827; first compound 0.003162 µM) was 1.09 and the relative viability (HCC-827; first compound 0.01 µM) was 1.03. For the same compound, the relative viability (HCC-827; first compound 0.1 µM) was 0.92, the relative viability (NCI-H1792; first compound 0.001 µM) was 0.57 and the relative viability (NCI-H1792; first compound 0.01 µM) was 0.718. The relative viability (NCI-H1792; first compound 0.1 µM) was 1.01, the relative viability (SK-LU-1; first compound 0.001 µM) was 0.929 and the relative viability (SK-LU-1; first compound 0.003162 µM) was 1.03. For the same compound, the relative viability (SK-LU-1; first compound 0.01 µM) was 1.06, the relative viability (SK-LU-1; first compound 0.03162 µM) was 0.632 and the relative viability (SK-LU-1; first compound 0.1 µM) was 0.719. For the same compound, the relative viability (NCI-H1666; first compound 0.001 µM) was 0.877, the relative viability (NCI-H1666; first compound 0.003162 µM) was 1.14 and the relative viability (NCI-H1666; first compound 0.01 µM) was 0.956. The relative viability (NCI-H1666; first compound 0.03162 µM) was 0.831, the relative viability (NCI-H1666; first compound 0.1 µM) was 0.856 and the relative viability (NCI-H3122; first compound 0.001 µM) was 0.941. The relative viability (NCI-H3122; first compound 0.003162 µM) was 0.925, the relative viability (NCI-H3122; first compound 0.01 µM) was 0.87 and the relative viability (NCI-H3122; first compound 0.03162 µM) was 0.683. It also gave a relative viability (NCI-H3122; first compound 0.1 µM) of 0.587, a relative viability (NCI-H2347; first compound 0.001 µM) of 1.01 and a relative viability (NCI-H2347; first compound 0.003162 µM) of 1.12. The relative viability (NCI-H2347; first compound 0.01 µM) was 1.03, the relative viability (NCI-H2347; first compound 0.03162 µM) was 0.981 and the relative viability (NCI-H2347; first compound 0.1 µM) was 1.01. For the same compound, the relative viability (LU99A; first compound 0.001 µM) was 0.495, the relative viability (LU99A; first compound 0.003162 µM) was 0.531 and the relative viability (LU99A; first compound 0.01 µM) was 0.518. It also gave a relative viability (LU99A; first compound 0.03162 µM) of 0.48, a relative viability (LU99A; first compound 0.1 µM) of 0.377 and a relative viability (NCI-H520; first compound 0.001 µM) of 0.793. It also gave a relative viability (NCI-H520; first compound 0.01 µM) of 0.986, a relative viability (NCI-H520; first compound 0.03162 µM) of 0.719 and a relative viability (NCI-H520; first compound 0.1 µM) of 1.03. It also gave a relative viability (NCI-H2126; first compound 0.001 µM) of 0.732, a relative viability (NCI-H2126; first compound 0.003162 µM) of 0.809 and a relative viability (NCI-H2126; first compound 0.01 µM) of 0.85. For the same compound, the relative viability (NCI-H2126; first compound 0.03162 µM) was 0.829, the relative viability (NCI-H2126; first compound 0.1 µM) was 0.575 and the relative viability (NCI-H1944; first compound 0.001 µM) was 0.867. The relative viability (NCI-H1944; first compound 0.003162 µM) was 0.876, the relative viability (NCI-H1944; first compound 0.01 µM) was 1.02 and the relative viability (NCI-H1944; first compound 0.03162 µM) was 0.837. The relative viability (NCI-H1944; first compound 0.1 µM) was 0.767, the relative viability (NCI-H1793; first compound 0.003162 µM) was 0.778 and the relative viability (NCI-H1793; first compound 0.01 µM) was 0.861. It also gave a relative viability (NCI-H1793; first compound 0.03162 µM) of 0.625, a relative viability (NCI-H1793; first compound 0.1 µM) of 0.454 and a relative viability (NCI-H358; first compound 0.001 µM) of 0.958. The relative viability (NCI-H358; first compound 0.003162 µM) was 1.18, the relative viability (NCI-H358; first compound 0.01 µM) was 0.999 and the relative viability (NCI-H358; first compound 0.03162 µM) was 0.686. For the same compound, the relative viability (NCI-H358; first compound 0.1 µM) was 0.666, the relative viability (NCI-H1395; first compound 0.001 µM) was 0.877 and the relative viability (NCI-H1395; first compound 0.003162 µM) was 0.929. For the same compound, the relative viability (NCI-H1395; first compound 0.03162 µM) was 0.977, the relative viability (NCI-H1395; first compound 0.1 µM) was 0.99 and the relative viability (CAL-12T; first compound 0.003162 µM) was 1.67. For the same compound, the relative viability (CAL-12T; first compound 0.01 µM) was 1.92, the relative viability (CAL-12T; first compound 0.03162 µM) was 0.653 and the relative viability (CAL-12T; first compound 0.1 µM) was 1.22. The relative viability (RERF-LC-KJ; first compound 0.001 µM) was 0.788, the relative viability (RERF-LC-KJ; first compound 0.003162 µM) was 0.831 and the relative viability (RERF-LC-KJ; first compound 0.01 µM) was 0.838. The relative viability (RERF-LC-KJ; first compound 0.03162 µM) was 0.727, the relative viability (RERF-LC-KJ; first compound 0.1 µM) was 0.777 and the relative viability (LCLC-103H; first compound 0.001 µM) was 1.03. It also gave a relative viability (LCLC-103H; first compound 0.003162 µM) of 1.09, a relative viability (LCLC-103H; first compound 0.03162 µM) of 1 and a relative viability (LCLC-103H; first compound 0.1 µM) of 0.956. For the same compound, the relative viability (NCI-H322M; first compound 0.001 µM) was 0.882, the relative viability (NCI-H322M; first compound 0.003162 µM) was 0.817 and the relative viability (NCI-H322M; first compound 0.03162 µM) was 0.72. It also gave a relative viability (NCI-H322M; first compound 0.1 µM) of 0.866.
